Assay results reported in paper PMC2965028 (Biochemistry, 2010).

Experiments:
[1] = target: HIV-1 synaptic complex (SC) (Human immunodeficiency virus type 1 group M subtype B, UniProt P12497); assay: Trapping of SC and H-SC on native agarose gels; assay type: biochemical; details: wt IN 20 nM, U5 DNA 0.5 nM, 2 h at 37°C, native agarose gel
wt HIV-1 IN = wt HIV-1 IN (Human immunodeficiency virus type 1 group M subtype B, UniProt P12497); details: read-out: IC50, inhibition with two blunt-ended DNA molecules in SC; cited from earlier work
N155H IN = N155H IN (Human immunodeficiency virus type 1 group M subtype B, UniProt P12497, N1302H); assay type: biochemical, HIV-1; details: IC50 N155H vs IC50 wt IN
wt IN-DNA complex = details: cited from earlier work
N155H IN-DNA complex = details: cited from earlier work
HIV-1 = details: in 50% normal human serum; cited from earlier work
Q148H IN = Q148H IN (Human immunodeficiency virus type 1 group M subtype B, UniProt P12497, Q1295H); assay type: biochemical, HIV-1; details: IC50 Q148H vs IC50 wt IN

O=C(O)C(=O)/C=C(\O)c1ccc2c(c1)c(=O)c(/C(O)=C/C(=O)C(=O)O)cn2Cc1ccc(F)cc1 [RDS 1997]
Inhibitor concentration at which trapped SC and H-SC were first detected [1]: ≥ 50 nM

O=C(NCc1ccc(F)cc1)c1nc(N2CCCCS2(=O)=O)c2cccnc2c1O [L-870,810]
IC50 (wt HIV-1 IN): ~32 nM

O=C(O)C(=O)C=C(O)c1cn(Cc2ccc(F)cc2)c2cc(N3CCCC3)ccc2c1=O [RDS 2197]
Fold change in IC50 for FS products, N155H IN relative to wt IN (resistance) (N155H IN): 1.3 fold
Inhibitor concentration at which trapped SC and H-SC were first detected [1]: ≥ 250 nM

Cc1nnc(C(=O)NC(C)(C)c2nc(C(=O)NCc3ccc(F)cc3)c(O)c(=O)n2C)o1 [RAL, raltegravir]
Dissociation half-life from wt IN-DNA complex (wt IN-DNA complex): 7.3 h
Dissociation half-life from N155H IN-DNA complex (N155H IN-DNA complex): ~0.7 h

CCN1C[C@H](C)n2c(c(O)c3c(=O)n(Cc4ccc(F)c(Cl)c4)nc(C(=O)NC)c32)C1=O [MK-2048]
Dissociation half-life from wt IN-DNA complex (wt IN-DNA complex): ~32 h
Inhibitor concentration at which trapped SC and H-SC were first detected [1]: ≥ 10 nM
Antiviral activity IC95 (HIV-1): 41 nM
Fold change in IC50 for FS products, Q148H IN relative to wt IN (resistance) (Q148H IN): 2 fold
Dissociation half-life from N155H IN-DNA complex (N155H IN-DNA complex): ~4 h
